# Molecular target: KRas (Homo sapiens, UniProt P01116, G12C)
# Assay: KRas degradation in NCI-H2030 cells by Western blot, normalized to GAPDH (data of Table 14)
# Format: cell-based
# Parameters: host or cells: NCI-H2030
# Conditions: for Dmax: NCI-H2030
# Outline: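 Readout: GAPDH-normalized KRas immunoblot signal, expressed as percent degradation versus 0.1% DMSO vehicle. Treatment: 0.3, 1, 3 μM after 24 h starvation; 24 h (VHL-based) or 72 h (others).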
SMILES,"Percent Degradation at Indicated Concentration (μM) (H2030, 0.3 μM)","Percent Degradation at Indicated Concentration (μM) (H2030, 1 μM)","Percent Degradation at Indicated Concentration (μM) (H2030, 3 μM)",Dmax [%],"Percent Degradation at Indicated Concentration (μM) (H2030 cells, 3 μM)","Percent Degradation at Indicated Concentration (μM) (H2030 cells, 0.3 μM)","Percent Degradation at Indicated Concentration (μM) (H2030 cells, 1 μM)"
"C=CC(=O)N1CCN(c2nc(NCCC(=O)N(C)CCOCCOCCOCCOCCNc3cccc4c3C(=O)N(C3CCC(=O)NC3=O)C4=O)nc3c(F)c(-c4c(O)cccc4F)c(Cl)cc23)CC1 [compound 115, 3-(((S)-4-(4-acryloylpiperazin-1-yl)-6-chloro-8-fluoro-7-(2-fluoro-6-hydroxyphenyl)quinazolin-2-yl)amino)-N-(14-((2-(2,6-dioxopiperidin-3-yl)-1,3-dioxoisoindolin-4-yl)amino)-3,6,9,12-tetraoxatetradecyl)-N-methylpropanamide]",–,–,C (Percent Degradation: C ≤ 35),–,–,–,–
"C=CC(=O)N1CCN(c2nc(NCCC(=O)N(C)CCOCCOCCOCCOCCNc3cccc4c3C(=O)N(C3CCC(=O)NC3=O)C4=O)nc3c(F)c(-c4c(O)cccc4F)c(Cl)cc23)CC1 [compound 116, 3-(((R)-4-(4-acryloylpiperazin-1-yl)-6-chloro-8-fluoro-7-(2-fluoro-6-hydroxyphenyl)quinazolin-2-yl)amino)-N-(14-((2-(2,6-dioxopiperidin-3-yl)-1,3-dioxoisoindolin-4-yl)amino)-3,6,9,12-tetraoxatetradecyl)-N-methylpropanamide]",C (Percent Degradation: C ≤ 35),C (Percent Degradation: C ≤ 35),C (Percent Degradation: C ≤ 35),≤ 35,–,–,–
"CN(CCOCCOCCOCCNc1cccc2c1C(=O)N(C1CCC(=O)NC1=O)C2=O)C(=O)CCNc1nc(N2CCN(C(N)=O)CC2)c2cc(Cl)c(-c3c(O)cccc3F)c(F)c2n1 [compound 146, 4-((7S)-6-chloro-2-((1-((2-(2,6-dioxopiperidin-3-yl)-1,3-dioxoisoindolin-4-yl)amino)-12-methyl-13-oxo-3,6,9-trioxa-12-azapentadecan-15-yl)amino)-8-fluoro-7-(2-fluoro-6-hydroxyphenyl)quinazolin-4-yl)piperazine-1-carboxamide]",C (Percent Degradation: C ≤ 35),C (Percent Degradation: C ≤ 35),C (Percent Degradation: C ≤ 35),≤ 35,–,–,–
"CN(CCOCCOc1ccc2c(c1)C(=O)N(C1CCC(=O)NC1=O)C2=O)C(=O)CCNc1nc(N2CCN(C(=O)C(O)O)CC2)c2cc(Cl)c(-c3c(O)cccc3F)c(F)c2n1 [compound 149, 3-(((S)-6-chloro-4-(4-(2,2-dihydroxyacetyl)piperazin-1-yl)-8-fluoro-7-(2-fluoro-6-hydroxyphenyl)quinazolin-2-yl)amino)-N-(2-(2-((2-(2,6-dioxopiperidin-3-yl)-1,3-dioxoisoindolin-5-yl)oxy)ethoxy)ethyl)-N-methylpropanamide]",–,–,–,–,C (Percent Degradation: C ≤ 35),–,–
"CN(CCOCCOc1ccc2c(c1)C(=O)N(C1CCC(=O)NC1=O)C2=O)C(=O)CCNc1nc(N2CCN(C(=O)C(O)O)CC2)c2cc(Cl)c(-c3c(O)cccc3F)c(F)c2n1 [compound 150, 3-(((R)-6-chloro-4-(4-(2,2-dihydroxyacetyl)piperazin-1-yl)-8-fluoro-7-(2-fluoro-6-hydroxyphenyl)quinazolin-2-yl)amino)-N-(2-(2-((2-(2,6-dioxopiperidin-3-yl)-1,3-dioxoisoindolin-5-yl)oxy)ethoxy)ethyl)-N-methylpropanamide]",–,–,–,–,C (Percent Degradation: C ≤ 35),C (Percent Degradation: C ≤ 35),C (Percent Degradation: C ≤ 35)
"Cc1ncsc1-c1ccc([C@H](C)NC(=O)[C@@H]2C[C@@H](O)CN2C(=O)[C@@H](NC(=O)COCCOCCN(C)C(=O)CCNc2nc(N3CCN(C(N)=O)CC3)c3cc(Cl)c(-c4cc(O)cc5ccccc45)c(F)c3n2)C(C)(C)C)cc1 [compound 182, 4-(6-chloro-8-fluoro-2-(((S)-14-((2S,4R)-4-hydroxy-2-(((S)-1-(4-(4-methylthiazol-5-yl)phenyl)ethyl)carbamoyl)pyrrolidine-1-carbonyl)-4,15,15-trimethyl-3,12-dioxo-7,10-dioxa-4,13-diazahexadecyl)amino)-7-(3-hydroxynaphthalen-1-yl)quinazolin-4-yl)piperazine-1-carboxamide]",C (Percent Degradation: C ≤ 35),C (Percent Degradation: C ≤ 35),C (Percent Degradation: C ≤ 35),≤ 35,–,–,–

# The remaining lines, values ahead:
"Percent Degradation at Indicated Concentration (μM) (H2030, 0.3 μM)","Percent Degradation at Indicated Concentration (μM) (H2030, 1 μM)","Percent Degradation at Indicated Concentration (μM) (H2030, 3 μM)",Dmax [%],"Percent Degradation at Indicated Concentration (μM) (H2030 cells, 3 μM)","Percent Degradation at Indicated Concentration (μM) (H2030 cells, 0.3 μM)","Percent Degradation at Indicated Concentration (μM) (H2030 cells, 1 μM)",SMILES
C (Percent Degradation: C ≤ 35),C (Percent Degradation: C ≤ 35),C (Percent Degradation: C ≤ 35),≤ 35,–,–,–,"C=CC(=O)N1CCN(c2nc(NCCC(=O)N(C)CCOCCOCCOCCNc3cccc4c3C(=O)N(C3CCC(=O)NC3=O)C4=O)nc3c(F)c(-c4c(O)cccc4F)c(Cl)cc23)CC1 [compound 113, 3-(((S)-4-(4-acryloylpiperazin-1-yl)-6-chloro-8-fluoro-7-(2-fluoro-6-hydroxyphenyl)quinazolin-2-yl)amino)-N-(2-(2-(2-(2-((2-(2,6-dioxopiperidin-3-yl)-1,3-dioxoisoindolin-4-yl)amino)ethoxy)ethoxy)ethoxy)ethyl)-N-methylpropanamide]"
–,–,–,–,C (Percent Degradation: C ≤ 35),–,–,"CN(CCOCCOCCOc1ccc2c(c1)C(=O)N(C1CCC(=O)NC1=O)C2=O)C(=O)CCNc1nc(N2CCN(C(=O)C(O)O)CC2)c2cc(Cl)c(-c3c(O)cccc3F)c(F)c2n1 [compound 151, 3-(((S)-6-chloro-4-(4-(2,2-dihydroxyacetyl)piperazin-1-yl)-8-fluoro-7-(2-fluoro-6-hydroxyphenyl)quinazolin-2-yl)amino)-N-(2-(2-(2-((2-(2,6-dioxopiperidin-3-yl)-1,3-dioxoisoindolin-5-yl)oxy)ethoxy)ethoxy)ethyl)-N-methylpropanamide]"
–,–,–,–,C (Percent Degradation: C ≤ 35),C (Percent Degradation: C ≤ 35),C (Percent Degradation: C ≤ 35),"CN(CCOCCOCCOc1ccc2c(c1)C(=O)N(C1CCC(=O)NC1=O)C2=O)C(=O)CCNc1nc(N2CCN(C(=O)C(O)O)CC2)c2cc(Cl)c(-c3c(O)cccc3F)c(F)c2n1 [compound 152, 3-(((R)-6-chloro-4-(4-(2,2-dihydroxyacetyl)piperazin-1-yl)-8-fluoro-7-(2-fluoro-6-hydroxyphenyl)quinazolin-2-yl)amino)-N-(2-(2-(2-((2-(2,6-dioxopiperidin-3-yl)-1,3-dioxoisoindolin-5-yl)oxy)ethoxy)ethoxy)ethyl)-N-methylpropanamide]"
C (Percent Degradation: C ≤ 35),C (Percent Degradation: C ≤ 35),C (Percent Degradation: C ≤ 35),≤ 35,–,–,–,"O=C1CCC(N2C(=O)c3ccc(OCCOCC/C=C/C(=O)N4CCN(c5ncnc6c(F)c(-c7cc(O)cc8ccccc78)c(Cl)cc56)CC4)cc3C2=O)C(=O)N1 (centres unmarked) [compound 168, (E)-5-(2-((5-(4-(6-chloro-8-fluoro-7-(3-hydroxynaphthalen-1-yl)quinazolin-4-yl)piperazin-1-yl)-5-oxopent-3-en-1-yl)oxy)ethoxy)-2-(2,6-dioxopiperidin-3-yl)isoindoline-1,3-dione]"
C (Percent Degradation: C ≤ 35),C (Percent Degradation: C ≤ 35),C (Percent Degradation: C ≤ 35),≤ 35,–,–,–,"O=C1CCC(N2C(=O)c3ccc(OCCOCCOCCOCC/C=C/C(=O)N4CCN(c5ncnc6c(F)c(-c7cc(O)cc8ccccc78)c(Cl)cc56)CC4)cc3C2=O)C(=O)N1 (centres unmarked) [compound 170, (E)-5-(2-(2-(2-((5-(4-(6-chloro-8-fluoro-7-(3-hydroxynaphthalen-1-yl)quinazolin-4-yl)piperazin-1-yl)-5-oxopent-3-en-1-yl)oxy)ethoxy)ethoxy)ethoxy)-2-(2,6-dioxopiperidin-3-yl)isoindoline-1,3-dione]"
C (Percent Degradation: C ≤ 35),C (Percent Degradation: C ≤ 35),C (Percent Degradation: C ≤ 35),≤ 35,–,–,–,"CN(C)C(=O)CCNc1nc(N2CCN(C(=O)/C=C/CCOCCOc3ccc4c(c3)C(=O)N(C3CCC(=O)NC3=O)C4=O)CC2)c2cc(Cl)c(-c3cc(O)cc4ccccc34)c(F)c2n1 (centres unmarked) [compound 172, (E)-3-((6-chloro-4-(4-(5-(2-((2-(2,6-dioxopiperidin-3-yl)-1,3-dioxoisoindolin-5-yl)oxy)ethoxy)pent-2-enoyl)piperazin-1-yl)-8-fluoro-7-(3-hydroxynaphthalen-1-yl)quinazolin-2-yl)amino)-N,N-dimethylpropanamide]"
C (Percent Degradation: C ≤ 35),C (Percent Degradation: C ≤ 35),C (Percent Degradation: C ≤ 35),≤ 35,–,–,–,"CN(C)C(=O)CCNc1nc(N2CCN(C(=O)/C=C/CCOCCOCCOCCOc3ccc4c(c3)C(=O)N(C3CCC(=O)NC3=O)C4=O)CC2)c2cc(Cl)c(-c3cc(O)cc4ccccc34)c(F)c2n1 (centres unmarked) [compound 174, (E)-3-((6-chloro-4-(4-(5-(2-(2-(2-((2-(2,6-dioxopiperidin-3-yl)-1,3-dioxoisoindolin-5-yl)oxy)ethoxy)ethoxy)ethoxy)pent-2-enoyl)piperazin-1-yl)-8-fluoro-7-(3-hydroxynaphthalen-1-yl)quinazolin-2-yl)amino)-N,N-dimethylpropanamide]"
